Results as given in publication PMC9842534 (European Journal of Medicinal Chemistry, 2023).
Where a SMILES comes first, the peptide text is derived from it. Bridges are numbered along the chain shown (N, C = ends). [ ]: non-standard residue; d: D form. S5 = C=CCCC[C@](C)(N)C(=O)O

Target: SARS-CoV-2 Spike RBD-ACE2 interaction (Severe acute respiratory syndrome coronavirus 2, UniProt P0DTC2)
Format: binding, SARS-CoV-2 / human

## CC(C)C[C@@H]1NC(=O)[C@H](CC(=O)O)NC(=O)[C@H](CCC(=O)O)NC(=O)[C@@](C)(NC(=O)[C@H](CCC(=O)O)NC(=O)[C@@H](N)Cc2c[nH]cn2)CCC/C=C\CCC[C@@](C)(C(=O)N[C@@H](Cc2ccc(O)cc2)C(=O)N[C@@H](CCC(N)=O)C(N)=O)NC1=O [Compound 6] (H-HE[S5]EDL[S5]YQ-NH2; staple (Z) 3-7; N-terminus and C-terminus assumed)
  inhibition of the spike RBD-ACE2 interaction (in words): significant inhibitory activity
